{"source": "patent US6887894B2", "about": "“Use of lipoic acid for improving the bioavailability of mineral salts” (BASF Aktiengesellschaft, priority 2000, dated 2005)", "type_in_all_cases": "in vivo", "key": {"[1]": {"experiment": "Study 3: zootechnical parameters (feed intake, live weight) of growing rats", "conditions": "for LW Gain: 28 days; for Live weight d0: initial weight", "protocol": "(§1) 36 male Wistar albino rats (Harlan Winkelmann, Borchen) having an initial weight of 47.0±2.63 g were randomly divided into 6 groups each of 6 animals and fed the diets specified in Table 7 (experimental design) and Section 5.2 over a period of 28 days. The animals were kept individually in Makrolon cages on stainless grids under standard conditions (22° C., 55% relative humidity, 12 hour light/dark rhythm). Feed and deionized drinking water were available to the experimental animals ad libitum. During the 2nd and 3rd experimental week (metabolism phase) feces were collected quantitatively. After completion of the experimental phase (day 28), the animals were decapitated under CO2— anesthesia, exsanguinated and the tissue to be analyzed was removed. Groups Ib, IIb and IIIb here are Example 5, while Groups Ia, IIa and IIIa are Comparison Example 2.\nParameters used to estimate Zn availability were the zootechnical parameters feed intake, live weight development and live weight increase, apparent Zn absorption, alkaline phosphatase activity in plasma, plasma and femur Zn concentration and metallothionin concentration in liver tissue. • 5.2 Experimental diets\nThe experimental animals were fed semisynthetic diets based on high-purity components (corn starch, egg albumin protein, sucrose, soybean oil and cellulose) over a period of 28 days (see Table 8 for composition of the base diet), the experimental diets differing with respect to the type of zinc compound supplemented, the absolute Zn concentration and the phytic acid content (0.4% PA from NaPA, Sigma-Aldrich, Steinheim) (see Table 7).\nZn supplements used were Zn ((R)-α-Lipoat)2(H2O)2 from Example 1 (Example 5) and Zn sulfate (ZnSO4.7 H2O analytical grade, Merck, Darmstadt) (Comparison Example 2). The Zn concentrations of the experimental diets Ia-IIb were set at a level of 10 mg/kg of diet estimated to be marginal for growing rats, in order to enable investigation of the availability of the Zn supplements under test in the suboptimun supply range."}, "[2]": {"experiment": "Study 3: Zn concentration in the femur", "conditions": "rats; for Zn concentration in Femur: day 28", "protocol": "as §1\nThe ash solutions were prepared by the principle of wet ashing. The sample material was admixed with 10 ml of 65% strength HNO3 (Merck, Suprapur) and then boiled under a reflux condenser in a digestion apparatus (Gerhardt SMA-20, Bonn). This oxidatively degraded the organic matrix and completely mineralized the test material. The Zn concentration was determined in the ash solutions by flame-AAS (Philips, PU 9400, Kassel). • 5.3.3 Analysis of the fecal samples"}, "[3]": {"experiment": "Study 1/Study 2: bioavailability of Zn lipoate and ZnSO4 in rats (Example 4, Comparison Example 1)", "quoted_text": "Male Albino rats (Wistar) of an initial weight of 40 g were used. The animals were kept during each 28-day experimental period at a room temperature of 22° C., a relative humidity of approximately 55% and in a 12-hour light-dark cycle. The rats were housed individually in Makrolon cages with stainless steel bottoms which permitted controlled feed intake and quantitative collection of feces and urine. The feed was provided once a day at 8^00. The live mass of the rats was determined weekly, feces and urine were collected every day at 10^00 and 17^00. At the end of the experiment, the rats were decapitated after chloroform anesthesia. • 4.2 Description of the diets and experimental design\n6 rats are used per experimental group. The mealy diets were administered ad lib. […] The control group (group 1) received the PA-free base diet.\nThe amounts of feces and urine produced separately in the metabolic cages are collected quantitatively every day and stored at −22° C. To avoid any losses of N in the urine collection vessels, 1 ml of 20% strength HCl (Suprapur) is added to each of the vessels daily. For further analysis, the sample material is freeze-dried for 48 h. • 4.3.2 Organ and tissue samples\nThe right femur, liver and testes are removed immediately after decapitation and complete exsanguination of the animals and the fresh mass is determined. The samples are sealed in plastic film and stored at −22° C. until further analysis. • 4.3.3 Blood\nThe rats are decapitated at the end of the experiment after complete narcosis with chloroform and the blood collected in heparinized plastic tubes. 40 I.U. of heparin sodium are introduced per ml of blood. […]\nZinc is determined by means of atomic absorption spectrophotometry (AAS) in an acetylene flame. • 4.5 Diagnosis of zinc status • 4.5.1 Determination of the plasma zinc concentration\nThe plasma zinc concentration is measured directly in the flame by means of AAS (Philips, PIJ 9400). […]\nThe enzyme activity is measured kinetically on a semimicroscale at a wavelength of 405 nm and 25° C. using a UV spectrophotometer. […]"}, "metallothionin": {"system": "metallothionin", "experiment": "Study 3: metallothionin in liver tissue", "conditions": "rats; for Metallothionin concentration in liver tissue: day 28", "protocol": "as §1\nTotal MT concentration in liver tissue was determined using the cadmium-binding method of EATON and TOAL (EATON, D. L., TOAL, B. F. (1982): Evaluation of the cadmium/hemoglobin affinity assay for the rapid determination of metallothionein in biological tissues. Toxicol Appl. Pharmacol. 66, 134-142) in a modification tested at the Giessen Institute (LEUNERT, V. (1994): Einfluβ von Zink sowie fetalem Kälberserum, bovinem Serumalbumin und calciummobilisierenden Rezeptoragonlsten auf Metallothionein in primär kultivierten Rattenhepatocyten [Effect of zinc and fecal calf serum, vine serum albumin and calcium-immobilizing receptor agonists on metallothionin in primary cultivations of rat hepatocytes]. Inaugural dissertation at the Institut für Tierernahrung und Ernährungse-physiologie [Institute of Animal Nutrition and Nutritional Physiology] of the University of Cicesen, Verlag Shaker, Aachen, PALLAUF et al. 1995). The protein content in liver homogenates war determined using the Lowry-Folin method (DAWSON, R. M. C. ELLIOTT, D C; JONES, K. M. (1986): Data for biochemical research, 3rd ed., Clarendon Press, New York, 543). • 5.3.5. Statistical analysis"}, "[4]": {"experiment": "Study 3: Zn intake, fecal excretion and apparent absorption of zinc", "conditions": "rats", "protocol": "as §1\nDuring the two-week metabolism phase, the rat feces were collected daily, adherent feed residues and other impurities were removed and the samples were stored at −20° C. At the end of the metabolism period the fecal weight was determined quantitatively and feces were then freeze-dried under vacuum over a period of 48 h (Gamma 1-20, Christ, Osterode). The dried samples were finely around using a domestic grinder (Moulinette electronic 89902) and stored at ambient temperature in PE bottles.\nA sample aliquot of 1.5 g or the freeze-dried and ground fecal samples was dried for 24 h at 105° C. to remove residual water and then ashed in a muffle furnace at 450° C. for 21 h. The ash residue was dissolved by acid addition and then analyzed quantitatively. The Zn concentration in the fecal samples was determined by flame-AAS (Philips, PU 9400, Kassel). • 5.3.4 Diagnosis of Zn status\n(§2) Zn absorption was calculated, without taking into account endogenous level as a difference between element […] and fecal excretion (=apparent absorption). Plasma Zn concentration was determined by AAS (Philips, PU 9400, Kassel). The samples were diluted with 0.1 M HCl in a ratio of 1:20 (v/v). The activity of the Zn metalloenzyme alkaline phosphatase (AP) (E.C. 3.1.3.1) wan assayed using the individual chemicals diethanolamine buffer and p-nitrophenyl phosphate according to the recommendations of the […] FÜR […] CHIMIE [German Clinical Chemistry Society] ([…] FÜR […] CHEMIE (1972). Standardmethode zur Bestimmung der Aktivität der alkalischen Phosphatase (AP) [Standard Method for Determining Alkaliur Phosphatase (AP) Activity]. Z. klin. Chem u. klin. Biochemie. 10, 191). • 5.3.5 Metallothionin in liver tissue"}, "[5]": {"system": "alkaline phosphatase (AP) (E.C. 3.1.3.1)", "experiment": "Study 3: alkaline phosphatase activity in plasma", "conditions": "rats, day 28", "protocol": "as §1, §2"}, "[6]": {"conditions": "10 ppm Zn, PA-free diet (group I)"}, "[7]": {"conditions": "20 ppm Zn + 0.4% PA (group III)"}}, "note": "Values joined by “and” are separate entries in the source; they are usually repeats but may differ in a detail not shown here. Equal values may be shown once. Marks after values point to notes of the source that are not given here.", "data": [{"smiles": "O=C(O)CCCC[C@@H]1CCSS1", "note": "[Zn lipoate, Zn((R)-α-lipoate)2(H2O)2]", "values": [{"measurement": "Feed intake Total", "setting": "[1]; 10 ppm Zn + 0.4% PA (group II)", "result": "186 ^a g/28d"}, {"measurement": "Feed intake d1-d7", "setting": "[1]; 10 ppm Zn + 0.4% PA (group II)", "result": "39.5 ^ab g"}, {"measurement": "Feed intake d8-d14", "setting": "[1]; 10 ppm Zn + 0.4% PA (group II)", "result": "46.5 ^a g"}, {"measurement": "Feed intake d15-d21", "setting": "[1]; 10 ppm Zn + 0.4% PA (group II)", "result": "48.2 ^a g"}, {"measurement": "Feed intake d22-d28", "setting": "[1]; 10 ppm Zn + 0.4% PA (group II)", "result": "51.3 ^a g"}, {"measurement": "Live weight d7", "setting": "[1]; 10 ppm Zn + 0.4% PA (group II)", "result": "60.0^ab g"}, {"measurement": "Live weight d14", "setting": "[1]; 10 ppm Zn + 0.4% PA (group II)", "result": "82.5^a g"}, {"measurement": "Live weight d21", "setting": "[1]; 10 ppm Zn + 0.4% PA (group II)", "result": "99.1^a g"}, {"measurement": "Live weight d28", "setting": "[1]; 10 ppm Zn + 0.4% PA (group II)", "result": "114.2^a g"}, {"measurement": "LW Gain", "setting": "[1]; 10 ppm Zn + 0.4% PA (group II)", "result": "67.0^a g"}, {"measurement": "Live weight d0", "setting": "[1]; 10 ppm Zn + 0.4% PA (group II)", "result": 47.2, "unit": "g"}, {"measurement": "Feed intake Total", "setting": "[1]; [6]", "result": "307 ^b g/28d"}, {"measurement": "Feed intake d1-d7", "setting": "[1]; [6]", "result": "54.9 ^ab g"}, {"measurement": "Feed intake d8-d14", "setting": "[1]; [6]", "result": "78.7 ^c g"}, {"measurement": "Feed intake d15-d21", "setting": "[1]; [6]", "result": "86.9 ^c g"}, {"measurement": "Feed intake d22-d28", "setting": "[1]; [6]", "result": "86.5 ^b g"}, {"measurement": "Live weight d7", "setting": "[1]; [6]", "result": "75.6^ab g"}, {"measurement": "Live weight d14", "setting": "[1]; [6]", "result": "122.5^b g"}, {"measurement": "Live weight d21", "setting": "[1]; [6]", "result": "159.2^c g"}, {"measurement": "Live weight d28", "setting": "[1]; [6]", "result": "185.8^c g"}, {"measurement": "LW Gain", "setting": "[1]; [6]", "result": "138.7^c g"}, {"measurement": "Live weight d0", "setting": "[1]; [6]", "result": 47.1, "unit": "g"}, {"measurement": "Feed intake Total", "setting": "[1]; [7]", "result": "300 ^b g/28d"}, {"measurement": "Feed intake d1-d7", "setting": "[1]; [7]", "result": "60.0 ^b g"}, {"measurement": "Feed intake d8-d14", "setting": "[1]; [7]", "result": "77.3 ^c g"}, {"measurement": "Feed intake d15-d21", "setting": "[1]; [7]", "result": "79.2 ^bc g"}, {"measurement": "Feed intake d22-d28", "setting": "[1]; [7]", "result": "83.5 ^b g"}, {"measurement": "Live weight d7", "setting": "[1]; [7]", "result": "77.9^b g"}, {"measurement": "Live weight d14", "setting": "[1]; [7]", "result": "119.1^b g"}, {"measurement": "Live weight d21", "setting": "[1]; [7]", "result": "147.4^bc g"}, {"measurement": "Live weight d28", "setting": "[1]; [7]", "result": "173.2^bc g"}, {"measurement": "LW Gain", "setting": "[1]; [7]", "result": "125.9^bc g"}, {"measurement": "Live weight d0", "setting": "[1]; [7]", "result": 47.3, "unit": "g"}, {"measurement": "total feed intake, change owing to Zn-α-lipoate feeding", "setting": "[1]; 28-day period, versus Zn sulfate groups", "result": "increase"}, {"measurement": "live weight gain, Zn lipoate compared with Zn sulfate", "setting": "[1]; in each case (groups I, II, III)", "result": "increase"}, {"measurement": "Zn concentration in Femur", "setting": "[2]; 10 ppm Zn + 0.4% PA (group II)", "result": "41.2 ^a μg/g FW"}, {"measurement": "Zn concentration in Femur", "setting": "[2]; [6]", "result": "79.2 ^c μg/g FW"}, {"measurement": "Zn concentration in Femur", "setting": "[2]; [7]", "result": "64.1 ^b μg/g FW"}, {"measurement": "level of Zn incorporation into the femur tissue, compared with Zn sulfate", "setting": "[2]; with addition of phytate", "result": "beneficial effect"}, {"measurement": "zinc deficiency symptoms (anorexia, alopecia, depression of growth)", "setting": "[3]; diet with 0.4% NaPA, high dose 20 mg Zn/kg of feed, 28 days", "result": "disappear completely"}, {"measurement": "Zn status parameters of blood plasma (Zn concentration, free zinc binding capacity, alkaline phosphatase activity) and femur and liver Zn concentration", "setting": "[3]; in comparison with Zn sulfate", "result": "improved"}, {"measurement": "Metallothionin concentration in liver tissue", "setting": "metallothionin; 10 ppm Zn + 0.4% PA (group II)", "result": 7.94, "unit": "ng MT/mg Protein"}, {"measurement": "Metallothionin concentration in liver tissue", "setting": "metallothionin; [6]", "result": 8.32, "unit": "ng MT/mg Protein"}, {"measurement": "Metallothionin concentration in liver tissue", "setting": "metallothionin; [7]", "result": 8.71, "unit": "ng MT/mg Protein"}, {"measurement": "hepatic MT concentration, Zn lipoate versus ZnSO4 as Zn source", "setting": "metallothionin; all groups (I, II and III)", "result": "nominal increases"}, {"measurement": "absolute Zn absorption, Zn lipoate group versus Zn sulfate group", "setting": "[4]; 20 mg Zn/kg of diet + 0.4% PA (groups IIIa, IIIb)", "result": "statistically significant higher"}, {"measurement": "Apparent absorption of Zn", "setting": "[4]; 10 ppm Zn + 0.4% PA (group II)", "result": "47.3 ^a %"}, {"measurement": "Apparent absorption of Zn (absolute)", "setting": "[4]; 10 ppm Zn + 0.4% PA (group II)", "result": "0.446 ^a mg/14 d"}, {"measurement": "Fecal excretion of Zn", "setting": "[4]; 10 ppm Zn + 0.4% PA (group II)", "result": "0.494 ^a mg/14 d"}, {"measurement": "Apparent absorption of Zn", "setting": "[4]; [6]", "result": "73.6 ^b %"}, {"measurement": "Apparent absorption of Zn (absolute)", "setting": "[4]; [6]", "result": "1.24 ^b mg/14 d"}, {"measurement": "Fecal excretion of Zn", "setting": "[4]; [6]", "result": "0.445 ^a mg/14 d"}, {"measurement": "Apparent absorption of Zn", "setting": "[4]; [7]", "result": "48.4 ^a %"}, {"measurement": "Apparent absorption of Zn (absolute)", "setting": "[4]; [7]", "result": "1.60 mg/14 d and 1.60 ^c mg/14 d"}, {"measurement": "Fecal excretion of Zn", "setting": "[4]; [7]", "result": "1.71 ^b mg/14 d"}, {"measurement": "apparent Zn absorption (%), effect of Zn lipoate supplementation", "setting": "[4]; PA diets, group IIa to IIb and IIIa to IIIb", "result": "increase"}, {"measurement": "Alkaline Phosphatase activity in plasma", "setting": "[5]; 10 ppm Zn + 0.4% PA (group II)", "result": "225 ^a mU/ml Plasma"}, {"measurement": "Alkaline Phosphatase activity in plasma", "setting": "[5]; [6]", "result": "365 ^b mU/ml Plasma"}, {"measurement": "Alkaline Phosphatase activity in plasma", "setting": "[5]; [7]", "result": "384 ^b mU/ml Plasma"}]}]}
